Experimental data published in US20230118459A1, “ANTIVIRAL TREATMENT” (priority 2020, published 2023).

Experiments:
[1] = system: virus (not named) in Huh7 cells; assay: Cytopathic effect assay; settings: for average inhibition (%) at 14 μM / average inhibition (%) at 29 μM: virus added directly after compound; for inhibition at 14 µM: read-out: average inhibition (%) at 14 μM; for inhibition at 29 µM: read-out: average inhibition (%) at 29 μM
[2] = system: enveloped viruses, including HIV, IAV, VSV, and SARS; settings: VSV (Harada, 2005), SARS (Cinatl et al., 2003); cited from earlier work
HCV = settings: Anggakusuma et al., 2013, read-out: EC50 inhibiting binding and fusion; cited from earlier work
[3] = Huh7 cells, cytopathic effect, 7 days at 33° C.

Compound	average inhibition (%) at 14 μM ([1]; Huh7 cells, 7 days at 33° C.)	average inhibition (%) at 29 μM ([1]; Huh7 cells, 7 days at 33° C.)	EC30 [1, 3]	further results
CCCCCCCCCCCCCC(=O)NCCC[N+](C)(C)Cc1ccccc1.C[C@H](O)C(=O)[O-] [ES001391, Myramistin (L)-lactate]	0%	18.5%	45.1 µM	–
CCCCCCCCCCCCCC(=O)NCCC[N+](C)(C)Cc1ccccc1 [ES001071, myristamido-propyl-dimethyl-benzyl-ammonium chloride, reference compound]	–	–	22.7 µM	inhibition at 14 µM ([1]; Huh-7, 168 h): 8.7%; inhibition at 29 µM ([1]; Huh-7, 168 h): 35.9%
CCCCCCCCCCCCCC(=O)NCCC[N+](C)(C)Cc1ccc(C#N)cc1 [ES001713, N-(3-(dimethyl 4-cyanobenzylammonio)propyl)myristamide chloride]	–	–	11.8 µM	EC50 ([1]; Huh-7, 168 h): 16.7 µM; inhibition at 14 µM ([1]; Huh-7, 168 h): 38.3%; inhibition at 29 µM ([1]; Huh-7, 168 h): 79.4%
CC1(C)[C@@H](O[C@H]2O[C@H](C(=O)O)[C@@H](O)[C@H](O)[C@H]2O[C@@H]2O[C@H](C(=O)O)[C@@H](O)[C@H](O)[C@H]2O)CC[C@]2(C)[C@H]3C(=O)C=C4[C@@H]5C[C@@](C)(C(=O)O)CC[C@]5(C)CC[C@@]4(C)[C@]3(C)CC[C@@H]12 [Glycyrrhizin]	–	–	–	activity against enveloped viruses [2]: weakly active
COc1cc(/C=C/C(=O)CC(=O)/C=C/c2ccc(O)c(OC)c2)ccc1O [Curcumin]	–	–	–	EC50 (HCV): 8.46 µM
CCCCCCCCCCCCCC(=O)NCCC[N+](C)(C)CCc1ccccc1.[Cl-] [ES001726, N-(3-(dimethylethylenephenylammonio)propyl)myristamide chloride]	26.4%	14.9%	15.7 µM	–
CCCCCCCC(=O)[O-].CCCCCCCCCCCCCC(=O)NCCC[N+](C)(C)Cc1ccccc1 [ES001639, Myramistin capiylate]	17.9%	42.1%	22.3 µM	–
CCCCCCCCCCCCCC(=O)NCCC[N+](C)(C)Cc1ccc(C)cc1 [ES001706, N-(3-(dimethyl 4-methylbenzylammonio)propyl)myristamide chloride]	–	–	–	inhibition at 14 µM ([1]; Huh-7, 168 h): 23.8%; inhibition at 29 µM ([1]; Huh-7, 168 h): 34.1%
N-(3-(dimethyl 4-methylenenaphthyl ammonio)propyl)myristamide chloride [ES001715]	45.4%	0%	10.0 µM	–
Myramistin citrate [ES001637]	19.5%	36.8%	21.1 µM	–
CCCCCCCCCCCCCC(=O)NCCC[N+](C)(C)Cc1ccccc1.O=C([O-])CO [ES001652, Myramistin glycolate]	17.0%	36.2%	23.8 µM	–
N-(3-(dimethyl 3-methylenethiophenyl ammonio)propyl)myristamide chloride [ES001716]	13.3%	51.8%	21.1 µM	EC50 [1, 3]: 28.1 µM
